Key:
[1] = system: HIV-1 infection of TZM-bl cells; experiment: HIV-1 infectivity enhancement assay, β-galactosidase luminescence; type: cell-based; settings: for Log10 Inf. rel. to EF-C: log10 of HIV-1 infection of TZM-bl cells relative to EF-C, Fig S15 source data, asymmetric std dev errors
[2] = Zeta-potential measurement; type: physicochemical; settings: zeta potential of peptide; Fig S15 source data
Method: 4 µL of 1 mg/mL peptide fibrils solution is added to a 20 µL, 50 µM ThT–solution in PBS. The mixture is incubated for 15 min at RT to allow binding of ThT dye with β–sheet rich structures. For reference PBS (4 µL) was added instead of peptide fibril solution. The samples were placed in black UV Star® 384 microliter well–plates (Greiner bio–one). Fluorescence spectra were recorded on an Infinite® M1000 PRO microplate reader (Tecan) at λem = 488 nm upon excitation at λex = 440 nm with 10 nm bandwidths and multiple reads per well (3×3). Measurements were repeated in triplicates and averaged with standard deviation. […] Zeta-Potential. For the determination of the surface charge of aggregated peptides zeta-potential measurements were conducted with a Zetasizer Nano ZS, Malvern Instruments. Unless stated otherwise the peptides were dissolved from DMSO (10 mg/mL) in PBS (pH 7.4) to concentration of 1 mg/mL and incubated for 1d at RT. Just before the measurement the 60 µL of the peptides were further diluted in 600 µL KCl (aq, 1 mM) in a 1 mL disposable folded capillary cells (DTS–1060, Zetasizer Nano series, Malvern). The zeta potential of the peptides was derived from the electrophoretic mobility based on the Smoluchowski formula. All measurements were averaged over two individually performed experiments and conducted in triplicates for each sample. Aggregate analysis. […] Furthermore, fluorescence microscopy was conducted by staining 1 µL preformed fibrils (1 mg/mL) with 9 µL ThT (50 µM). Brightfield microscopy was performed simultaneously to evaluate aggregation also for non ThT-active fibrils. The measurements were performed on a Leica DMi8 microscope with 10x air objective and equipped with a Leica MC170 HD camera with a filter setting λem = 527/30 nm upon excitation at λex = 480/40 nm) and processed with the Leica LASX software. To quantify size and number of microscopic aggregation of particles > 10 µm^2 at least 3 independently measured images were analyzed via the 3D object counter analysis tool of ImageJ, v 1.53f51. Sum–frequency generation. The SFG experiments were carried out with a femtosecond Ti: Sapphire amplified laser system (Spitfire Ace, Spectra–Physics, 800 nm, 40 fs, 1 kHz) with 5 W output power. We used 2 W to pump an optical parametric amplifier (TOPAS, light conversion) with a non–collinear difference frequency generation stage to generate broadband IR pulses. Another 1 W of the laser output passed through an etalon to generate narrowband visible pulses (10 cm^-1). The incident angles of the visible and IR beams were 36° and 41° with respect to the surface normal, respectively. The visible (13 µJ) and IR (5 µJ) pulses were overlapped spatially and temporally at the sample position. Subsequently, the generated SFG pulse was guided into a spectrograph (Acton SP 300i, Princeton Instruments), and detected with an EMCCD (Newton, Andor Technology). To avoid IR absorption of water vapor, we purged N2 for the measurement. All spectra were collected in the ssp (denoting s-, s- and p-polarized SFG, visible and IR, respectively) polarization combination. The spectra were normalized to the non–resonant signal taken from z–cut quartz after subtracting a background spectrum. […]

[3] = type: physicochemical; settings: ThT-active if fluorescence at least twice the control
Method: 4 µL of 1 mg/mL peptide fibrils solution is added to a 20 µL, 50 µM ThT–solution in PBS. The mixture is incubated for 15 min at RT to allow binding of ThT dye with β–sheet rich structures. For reference PBS (4 µL) was added instead of peptide fibril solution. The samples were placed in black UV Star® 384 microliter well–plates (Greiner bio–one). Fluorescence spectra were recorded on an Infinite® M1000 PRO microplate reader (Tecan) at λem = 488 nm upon excitation at λex = 440 nm with 10 nm bandwidths and multiple reads per well (3×3). Measurements were repeated in triplicates and averaged with standard deviation. […] Zeta-Potential. For the determination of the surface charge of aggregated peptides zeta-potential measurements were conducted with a Zetasizer Nano ZS, Malvern Instruments. Unless stated otherwise the peptides were dissolved from DMSO (10 mg/mL) in PBS (pH 7.4) to concentration of 1 mg/mL and incubated for 1d at RT. Just before the measurement the 60 µL of the peptides were further diluted in 600 µL KCl (aq, 1 mM) in a 1 mL disposable folded capillary cells (DTS–1060, Zetasizer Nano series, Malvern). The zeta potential of the peptides was derived from the electrophoretic mobility based on the Smoluchowski formula. All measurements were averaged over two individually performed experiments and conducted in triplicates for each sample. Aggregate analysis. […] Furthermore, fluorescence microscopy was conducted by staining 1 µL preformed fibrils (1 mg/mL) with 9 µL ThT (50 µM). Brightfield microscopy was performed simultaneously to evaluate aggregation also for non ThT-active fibrils. The measurements were performed on a Leica DMi8 microscope with 10x air objective and equipped with a Leica MC170 HD camera with a filter setting λem = 527/30 nm upon excitation at λex = 480/40 nm) and processed with the Leica LASX software. To quantify size and number of microscopic aggregation of particles > 10 µm^2 at least 3 independently measured images were analyzed via the 3D object counter analysis tool of ImageJ, v 1.53f51. Sum–frequency generation. The SFG experiments were carried out with a femtosecond Ti: Sapphire amplified laser system (Spitfire Ace, Spectra–Physics, 800 nm, 40 fs, 1 kHz) with 5 W output power. We used 2 W to pump an optical parametric amplifier (TOPAS, light conversion) with a non–collinear difference frequency generation stage to generate broadband IR pulses. Another 1 W of the laser output passed through an etalon to generate narrowband visible pulses (10 cm^-1). The incident angles of the visible and IR beams were 36° and 41° with respect to the surface normal, respectively. The visible (13 µJ) and IR (5 µJ) pulses were overlapped spatially and temporally at the sample position. Subsequently, the generated SFG pulse was guided into a spectrograph (Acton SP 300i, Princeton Instruments), and detected with an EMCCD (Newton, Andor Technology). To avoid IR absorption of water vapor, we purged N2 for the measurement. All spectra were collected in the ssp (denoting s-, s- and p-polarized SFG, visible and IR, respectively) polarization combination. The spectra were normalized to the non–resonant signal taken from z–cut quartz after subtracting a background spectrum.
(§1) 1. Remarks on experimental parameters and bioinformatic descriptors

[4] = type: physicochemical; parameters: key to Fibril / Fibril Formation / TEM 2cat / Fibril: 1 = fibrils present; 0 non-fibrillar structures; settings: TEM, 1 mg/mL, uranyl acetate stain, qualitative
Method: For ATR FT–IR spectroscopy measurements, 200 µL of the respective 1 mg/mL PNF solution was lyophilized and the resulting powder used for measurement. All spectra were recorded on a Bruker Tensor 27 spectrometer with a diamond crystal as ATR element (PIKE MiracleTM, spectral resolution 2 cm^-1). Every sample was measured with 64 scans. Data were analyzed with OriginLab software and calculation of β–sheet content was conducted according to a previous report. TEM. For TEM measurements 5 µL of PNF fibrils (1 mg/mL) were placed on copper grids coated with carbon and formvar layer (300 mesh, Plano GmbH). After 10 min incubation time, the grids were staining with 4% uranyl acetate solution for 2.5 min and washed with water. Measurements were performed on a Jeol 1400 electron microscope with 120 kV acceleration voltage. CR Assay. For the determination of the amount of peptide monomer converting into nanostructures the amine reactive dye fluorescamine was used analogous to a previous reported protocol. Briefly, 100 µL of the preformed PNF solution was centrifuged in a Vivaspin 500 tube (3 kDa MWCO) to separate fibers from free peptide monomer (16200 x g, 4 °C, 45 min). The filtrate and 100 μL of the non-filtered PNF sample were lyophilized and dissolved in 30 μL DMSO. 10 μL of the filtrate and non-filtered DMSO samples were submitted in a black UV Star® 384 microliter well–plates (Greiner bio–one) and 3 μL of the fluorescamine solution (10 mg/mL, DMSO) was added to measure the fluorescence enhancement. After 20 min of incubation at RT, fluorescence was recorded on an Infinite® M1000 PRO microplate reader (Tecan) at λem = 470 nm upon excitation at λex = 365 nm with 10 nm bandwidths and multiple reads per well (3×3). Measurements were repeated in triplicates and averaged with standard deviation. All values were calculated as n-fold fluorescence enhancement (DMSO only as a reference was set to 1). The conversion rate CR was defined according to the equation Eq. (3).3 CR=100−100×fluorescenceintensityfiltrate/fluorescenceintensityoriginal[%]
as §1
1.1 Experimental parameters
Transmission electron microscopy (TEM) measurements. TEM measurements were used to control if peptides assemble. The assemblies were categorized in non -fibrillar structures (no assembly, […]
grid but only amorphous aggregates. In contrast, peptides defined as fibrillar may also include amorphous structures. Amongst nonfibrillar assemblies also amorphous aggregates are summarized.
Amorphous aggregates are defined as structures with high β-sheet content which lack long-range order, that is crystallinity or fibril formation. It is generally assumed that these structures might be

[5] = infectivity class (low / medium / high) of each library peptide, main list in c1-c6, same classes repeated in sub-lists of sequences containing the hydrophobicity/charge patterns P+,H0,P+,H0,P0,H0,P0, P+,H0,P0,H0,P0,H0,P0, P+,H0,P0,H0
[6] = infectivity class (low / medium / high) of the peptide in the sequence-pattern analysis, Fig. S22-A4, class limits not given
[7] = input.xlsx of the Pattern-Analysis script, infectivity relative to EF-C (peptide 59 = 1.00)

Substance | infectivity [1, 5] | Log10 Inf. rel. to EF-C [1] | Zeta-pot. / mV [2] | infectivity [1, 7] | further results
CETMYDKILKNLSRSR [CR16] | low | -1.716 | 0.41 mV | – | –
EIKIQINM [TM73] | low | -1.001 | -22.33 mV | – | infectivity [1, 6]: low
KKWWNF | – | – | – | – | ThT Cat. / ThT-Fluorescence (categorical) [3]: 0 (ThT-inactive (N-Fold <2)); Fibril / Fibril Formation [4]: 0
HRRHFRHKITKKK [CN29] | low | -1.868 | -9.223 mV | – | –
CKFQC [CN31] | low | -1.643 | -17.38 mV | – | –
KFKFEFEF [MGe01] | – | -1.547 | -2.55 mV | – | infectivity [1, 6]: low
HHHHEIEIEIEI [JR9] | low | -1.534 | -6.91 mV | – | –
KNERIKNERI [CN3] | low | -1.888 | -16 mV | – | –
EIEIEIEI [JR12] | low | -1.748 | -8.92 mV | – | –
KKFQKKFQ [CN21] | low | -1.545 | -9.19 mV | – | –
HGDKCHGDKC [CN2] | low | -1.991 | -11.63 mV | – | –
MDQMDQMDQMDQMDQ [CN23] | low | -2.37 | -14.98 mV | – | –
IKVAVKIKIQINM [TM74] | medium | -0.3046 | 14.5 mV | – | –
SISISRRI [CN28] | low | -1.548 | -17 mV | – | –
KIEIQINM [NM6] | – | -1.458 | -0.35 mV | – | infectivity [1, 6]: low
ILKNLSRSRKIKIQIC [TM116] | medium | -0.4741 | 18 mV | – | –
CKIKQIIRGD [psis22] | – | -1.311 | 13.2 mV | – | infectivity [1, 6]: low

Substance | infectivity [1, 5] | Log10 Inf. rel. to EF-C [1] | Zeta-pot. / mV [2] | infectivity [1, 7] | further results
RVWWNF | – | – | – | – | ThT Cat. / ThT-Fluorescence (categorical) [3]: 0 (ThT-inactive (N-Fold <2)); Fibril / Fibril Formation [4]: 0
RPRGLLLGNLR [CN20] | low | -1.3163 | -8.15 mV | – | –
RGDKIRGDKI [CN4] | low | -2.126 | -13.57 mV | – | –
FDPFDPFDP [CN24] | low | -1.6317 | -10.9 mV | – | –
KVWWNF | – | – | – | – | ThT Cat. / ThT-Fluorescence (categorical) [3]: 0 (ThT-inactive (N-Fold <2)); Fibril / Fibril Formation [4]: 0
NMWQKVGTPL [JG7] | low | -1.607 | -9.62 mV | – | –
KIKIQIW [compound 146] | – | – | – | 0.14 | –
CEIEIQI [compound 2] | – | – | – | 0.0279 | –
RGEKIKIQINM [compound 33] | – | – | – | 0.24 | –
KIKIKIKIWW [compound 139] | – | – | – | 0.37 | –
CKAKAQANM [compound 11] | – | – | – | 0.03 | –
MKIKIQINMWQ [compound 143] | – | – | – | 0.42 | –
CQFQFQF [compound 112] | – | – | – | 0.35 | –
KIKQIINM [compound 73] | – | – | – | 0.45 | –
KFKFKFQF [compound 118] | – | – | – | 0.80 | –
KLKLKLQL [compound 117] | – | – | – | 0.10 | –

From article PMC10447463, “Data-mining unveils structure–property–activity correlation of viral infectivity enhancing self-assembling peptides” (Nature Communications, 2023)
